Here are results for four compounds from BindingDB's records for doi:10.1074/jbc.M113.497990 (Vanderbilt University, 2013).

In experiment [1] the target is T1, Cytochrome P450 1A2 (Homo sapiens, UniProt P05177).
T1 sequence (P05177 whole entry): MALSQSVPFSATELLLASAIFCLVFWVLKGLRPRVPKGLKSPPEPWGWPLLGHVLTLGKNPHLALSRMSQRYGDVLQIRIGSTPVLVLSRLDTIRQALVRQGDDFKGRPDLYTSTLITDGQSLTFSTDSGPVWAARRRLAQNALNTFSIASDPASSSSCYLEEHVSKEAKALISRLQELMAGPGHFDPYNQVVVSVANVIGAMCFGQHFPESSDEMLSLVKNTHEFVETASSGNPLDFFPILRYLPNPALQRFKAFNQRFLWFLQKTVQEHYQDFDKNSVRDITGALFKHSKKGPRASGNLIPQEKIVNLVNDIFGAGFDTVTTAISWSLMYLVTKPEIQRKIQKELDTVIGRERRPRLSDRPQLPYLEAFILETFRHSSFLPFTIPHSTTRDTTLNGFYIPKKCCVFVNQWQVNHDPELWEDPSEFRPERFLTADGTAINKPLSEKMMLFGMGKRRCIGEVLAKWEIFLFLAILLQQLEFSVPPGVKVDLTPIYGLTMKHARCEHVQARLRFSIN
Put plainly: CYP Activity Assay. The following applies: 37 °C. Here is the method:
(§1) Inhibition of hepatic cytochromes P450 was assessed in human liver microsomes using a substrate-specific approach of monitoring metabolites formed by each specific CYP enzyme. Metabolic reactions included phenacetin-O-deethylation (1A2), tolbutamide methylhydroxylation (2C9), S-mephenytoin 4'-hydroxylation (2C19), dextrome-thorphan-[…] (2D6), and testosterone-6-β-hydroxylation (3A4). Each substrate was added at a concentration less than or equal to the Km for themetabolic pathway, and microsomal protein concentrations and assay incubation times were optimized for each reaction to ensure linear metabolite formation based on initial rates (Table 1). Microsomes were suspended in phosphate buffer and incubated at 37 °C in the presence of probe substrates. Reactions were initiated by the addition of an NADPH-regenerating buffer system and were quenched at the appropriate times using acetonitrile. Samples were centrifuged and concentrations of metabolites assessed by LC/MS.

Experiment [2] deals with Cytochrome P450 2C19 (Homo sapiens, UniProt P33261). The experiment is described as follows: CYP Activity Assay. The following applies: 37 °C. Here is the method:
as §1

Experiment [3] concerns the target Cytochrome P450 2C9 (Homo sapiens, UniProt P11712). The experiment is described as follows: CYP Activity Assay. The following applies: 37 °C. Here is the method: as §1
Experiment [4] concerns the target Cytochrome P450 2D6 (Homo sapiens, UniProt P10635). Put plainly: CYP Activity Assay. The following applies: 37 °C. Here is the method: as §1
Experiment [5] addresses Cytochrome P450 3A4 (Homo sapiens, UniProt P08684). The experiment is described as follows: CYP Activity Assay. The conditions noted are these: 37 °C. Here is the method: as §1
In experiment [6] the target is T2, Lanosterol 14-alpha demethylase (Homo sapiens, UniProt Q16850).
T2 sequence (Q16850 whole entry): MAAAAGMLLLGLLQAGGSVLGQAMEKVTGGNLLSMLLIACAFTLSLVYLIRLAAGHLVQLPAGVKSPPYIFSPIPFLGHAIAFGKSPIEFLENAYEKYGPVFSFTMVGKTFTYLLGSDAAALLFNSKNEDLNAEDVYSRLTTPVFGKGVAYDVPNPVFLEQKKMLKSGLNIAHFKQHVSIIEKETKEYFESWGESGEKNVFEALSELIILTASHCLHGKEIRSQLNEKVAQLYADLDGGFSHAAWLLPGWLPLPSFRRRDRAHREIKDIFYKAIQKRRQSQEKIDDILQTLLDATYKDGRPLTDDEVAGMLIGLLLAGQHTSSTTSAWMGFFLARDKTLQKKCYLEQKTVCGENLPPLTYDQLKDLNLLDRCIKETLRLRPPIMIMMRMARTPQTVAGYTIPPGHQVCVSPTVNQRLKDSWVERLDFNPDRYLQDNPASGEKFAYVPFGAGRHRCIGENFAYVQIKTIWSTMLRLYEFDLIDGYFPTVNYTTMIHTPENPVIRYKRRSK
The experiment is described as follows: CYP51 Inhibition Assay. The following applies: pH 7.4; 37 °C. Here is the method: (§2) Briefly, the reaction mixture contained 1 uM CYP51, 2 uM cytochrome P450 reductase, 100 uM dilauroyl-alpha-phosphatidylcholine, 0.4 mg/ml isoctrate dehydrogenase, and 25mM sodium isocitrate in 20mM MOPS (pH 7.4), 50 mM KCl, 5 mM MgCl2, and 10% glycerol. After the addition of the 3H-radiolabeled sterol substrate (~2000 cpm/nmol, final concentration 50 uM) the mixture was preincubated for 5 min at 37 °C in a shaking water bath (GCA Precision Scientific). The reaction was initiated by the addition of 100 uM NADPH and stopped by extraction of the sterols with ethyl acetate. The reaction products were dried, dissolved in methanol, and analyzed by a reverse-phase HPLC system (Waters) equipped with a beta-RAM detector (INUS Systems, Inc.) using a Nova-Pak C18 column (particle size 4 uM, 3.9 x 150 mm) and a linear gradient consisting of water:acetonitrile:methanol (1.0:4.5:4.5) (solvent A) and methanol (solvent B) at a flow rate of 1 ml/min.

The target in experiment [7] is Putative lanosterol 14-alpha-demethylase (Leishmania infantum, UniProt A2TEF2). Put plainly: CYP51 Inhibition Assay. The conditions noted are these: pH 7.4; 37 °C. Here is the method:
as §2

Experiment [8] concerns the target Sterol 14-alpha demethylase (Trypanosoma cruzi (strain CL Brener), UniProt Q7Z1V1). Put plainly: CYP51 Inhibition Assay. The following applies: pH 7.4; 37 °C. Here is the method:
as §2

Putative lanosterol 14-alpha-demethylase, sequence (A2TEF2 whole entry): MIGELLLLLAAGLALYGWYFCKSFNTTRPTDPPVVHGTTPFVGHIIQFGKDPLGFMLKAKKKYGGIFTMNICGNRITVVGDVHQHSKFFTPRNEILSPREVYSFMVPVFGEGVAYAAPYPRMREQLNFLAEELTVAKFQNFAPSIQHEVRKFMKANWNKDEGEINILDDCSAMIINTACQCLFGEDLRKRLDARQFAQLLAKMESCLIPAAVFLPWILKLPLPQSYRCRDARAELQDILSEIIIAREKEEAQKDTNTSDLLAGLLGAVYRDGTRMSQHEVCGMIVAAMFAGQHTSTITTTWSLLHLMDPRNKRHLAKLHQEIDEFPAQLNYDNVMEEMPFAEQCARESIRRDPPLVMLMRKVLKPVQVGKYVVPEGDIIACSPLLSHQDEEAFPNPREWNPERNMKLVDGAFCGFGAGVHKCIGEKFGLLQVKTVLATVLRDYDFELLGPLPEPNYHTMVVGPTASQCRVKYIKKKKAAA
Sterol 14-alpha demethylase, sequence (Q7Z1V1 whole entry): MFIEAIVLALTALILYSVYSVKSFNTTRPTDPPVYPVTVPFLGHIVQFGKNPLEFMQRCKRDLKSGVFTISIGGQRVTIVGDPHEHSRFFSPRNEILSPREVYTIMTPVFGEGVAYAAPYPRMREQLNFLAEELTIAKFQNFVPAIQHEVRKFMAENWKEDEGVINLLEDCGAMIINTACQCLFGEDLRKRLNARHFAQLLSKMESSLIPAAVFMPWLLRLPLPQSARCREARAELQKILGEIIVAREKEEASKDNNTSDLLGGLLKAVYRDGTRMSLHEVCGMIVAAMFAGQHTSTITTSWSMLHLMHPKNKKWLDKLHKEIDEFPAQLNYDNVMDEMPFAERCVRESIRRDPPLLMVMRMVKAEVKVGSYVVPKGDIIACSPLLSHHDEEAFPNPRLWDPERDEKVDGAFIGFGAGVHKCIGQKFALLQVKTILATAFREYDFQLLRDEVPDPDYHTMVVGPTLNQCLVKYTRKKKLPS
Cytochrome P450 2C19, sequence (P33261 whole entry): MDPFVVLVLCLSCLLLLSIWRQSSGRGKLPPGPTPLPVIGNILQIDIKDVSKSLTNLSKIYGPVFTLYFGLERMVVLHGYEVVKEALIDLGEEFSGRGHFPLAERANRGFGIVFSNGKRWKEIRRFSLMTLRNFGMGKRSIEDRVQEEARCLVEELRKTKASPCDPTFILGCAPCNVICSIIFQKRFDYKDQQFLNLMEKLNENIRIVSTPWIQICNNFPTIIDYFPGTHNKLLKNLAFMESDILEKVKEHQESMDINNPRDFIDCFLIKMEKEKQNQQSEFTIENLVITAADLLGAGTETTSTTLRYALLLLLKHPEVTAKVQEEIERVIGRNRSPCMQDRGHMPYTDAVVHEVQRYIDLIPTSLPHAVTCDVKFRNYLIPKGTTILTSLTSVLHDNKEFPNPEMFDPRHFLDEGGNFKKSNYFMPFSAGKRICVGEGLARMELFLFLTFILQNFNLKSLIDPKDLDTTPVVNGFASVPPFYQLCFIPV
Cytochrome P450 2C9, sequence (P11712 whole entry): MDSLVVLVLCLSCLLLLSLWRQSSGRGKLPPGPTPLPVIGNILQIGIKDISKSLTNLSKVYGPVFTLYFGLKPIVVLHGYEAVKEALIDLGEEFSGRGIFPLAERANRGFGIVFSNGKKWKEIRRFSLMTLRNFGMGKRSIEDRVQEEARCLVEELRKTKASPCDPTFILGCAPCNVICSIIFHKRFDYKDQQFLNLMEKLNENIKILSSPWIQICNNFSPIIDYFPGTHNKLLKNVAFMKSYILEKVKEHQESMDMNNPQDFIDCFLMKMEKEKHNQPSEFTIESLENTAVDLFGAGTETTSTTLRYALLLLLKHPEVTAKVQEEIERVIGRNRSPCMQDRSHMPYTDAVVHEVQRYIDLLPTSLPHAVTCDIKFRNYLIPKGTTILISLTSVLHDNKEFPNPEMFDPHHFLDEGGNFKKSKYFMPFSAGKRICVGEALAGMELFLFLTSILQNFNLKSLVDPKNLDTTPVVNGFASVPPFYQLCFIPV
Cytochrome P450 2D6, sequence (P10635 whole entry): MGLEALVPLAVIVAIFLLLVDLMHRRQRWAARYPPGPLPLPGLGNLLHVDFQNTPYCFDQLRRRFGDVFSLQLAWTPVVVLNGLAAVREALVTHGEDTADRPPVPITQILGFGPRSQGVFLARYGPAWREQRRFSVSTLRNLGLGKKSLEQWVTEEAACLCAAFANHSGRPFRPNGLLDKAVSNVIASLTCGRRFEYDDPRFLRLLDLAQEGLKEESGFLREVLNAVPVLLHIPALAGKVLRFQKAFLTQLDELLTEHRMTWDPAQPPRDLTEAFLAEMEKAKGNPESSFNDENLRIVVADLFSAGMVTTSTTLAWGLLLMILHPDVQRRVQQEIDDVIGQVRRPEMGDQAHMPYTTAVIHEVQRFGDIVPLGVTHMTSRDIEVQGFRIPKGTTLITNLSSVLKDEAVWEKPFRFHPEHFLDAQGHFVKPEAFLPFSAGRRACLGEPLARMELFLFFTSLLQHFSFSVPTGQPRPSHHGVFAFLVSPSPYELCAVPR
Cytochrome P450 3A4, sequence (P08684 whole entry): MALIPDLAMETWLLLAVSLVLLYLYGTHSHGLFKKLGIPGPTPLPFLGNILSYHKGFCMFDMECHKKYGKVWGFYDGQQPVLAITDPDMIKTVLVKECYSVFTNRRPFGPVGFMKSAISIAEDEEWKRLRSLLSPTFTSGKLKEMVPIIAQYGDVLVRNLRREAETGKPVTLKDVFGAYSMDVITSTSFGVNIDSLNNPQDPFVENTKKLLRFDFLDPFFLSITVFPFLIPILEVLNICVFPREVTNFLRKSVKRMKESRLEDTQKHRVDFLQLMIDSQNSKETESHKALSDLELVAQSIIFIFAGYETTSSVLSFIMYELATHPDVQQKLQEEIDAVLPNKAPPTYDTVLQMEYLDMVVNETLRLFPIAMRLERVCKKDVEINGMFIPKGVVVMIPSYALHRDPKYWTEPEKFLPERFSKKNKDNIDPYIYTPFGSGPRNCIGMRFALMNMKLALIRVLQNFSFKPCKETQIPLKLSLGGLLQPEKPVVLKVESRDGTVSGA

In the case of `O=C([C@@H](c1ccc(Cl)cc1)c1cccnc1)N1CCN(c2ccc(C(F)(F)F)cc2)CC1` [EPL-BS1246 (UDO)], the IC50 in experiment [1] was > 20000 nM; in experiment [2], 12000 nM; in experiment [3], 9000 nM; in experiment [4], 4000 nM; in experiment [5], 20000 nM. The Kd in experiment [6] worked out at 69 nM; in experiment [7] it was 156 nM; in experiment [8] it was 19 nM.
Turning to `FC(F)(F)c1ccc(N(c2cccnc2)C2CCN(c3ccc(C(F)(F)F)cn3)CC2)cc1` [EPL-BS0967 (UDD)], the IC50 is > 20000 nM in experiment [1], 9800 nM in experiment [2], 8100 nM in experiment [3] and 20000 nM in experiment [4]. Further, the Kd in experiment [6] was 26 nM; in experiment [7] it was 419 nM; in experiment [8], 32 nM.
As for `CC[C@@H]([C@H](C)O)n1ncn(-c2ccc(N3CCN(c4ccc(OCC5CO[C@@](Cn6cncn6)(c6ccc(F)cc6F)C5)cc4)CC3)cc2)c1=O` (some centres not stated) [Posaconazole], the Kd in experiment [7] came out at 18 nM.
Regarding `O=C(N[C@@H](Cn1ccnc1)c1ccc(Cl)cc1Cl)c1ccc(-c2nnc(-c3ccccc3)o2)cc1` [VNI], in experiment [8], binding was put at a Kd of 15 nM.

A word on the IC50: it is the concentration needed to halve the response being measured. Lower therefore signals higher potency. The Kd is the constant that tells how readily two partners part at equilibrium. Low values mean tighter binding, high ones weaker binding.
